Literature values in patent publication US20090202668A1, “Use of a polyphenol in the treatment of the metabolic syndrome and endothelial dysfunction or other vascular sequellae” (priority 2006, published 2009).

Target: T1, CETP (Homo sapiens, UniProt P11597)
T1 sequence (P11597 18-493): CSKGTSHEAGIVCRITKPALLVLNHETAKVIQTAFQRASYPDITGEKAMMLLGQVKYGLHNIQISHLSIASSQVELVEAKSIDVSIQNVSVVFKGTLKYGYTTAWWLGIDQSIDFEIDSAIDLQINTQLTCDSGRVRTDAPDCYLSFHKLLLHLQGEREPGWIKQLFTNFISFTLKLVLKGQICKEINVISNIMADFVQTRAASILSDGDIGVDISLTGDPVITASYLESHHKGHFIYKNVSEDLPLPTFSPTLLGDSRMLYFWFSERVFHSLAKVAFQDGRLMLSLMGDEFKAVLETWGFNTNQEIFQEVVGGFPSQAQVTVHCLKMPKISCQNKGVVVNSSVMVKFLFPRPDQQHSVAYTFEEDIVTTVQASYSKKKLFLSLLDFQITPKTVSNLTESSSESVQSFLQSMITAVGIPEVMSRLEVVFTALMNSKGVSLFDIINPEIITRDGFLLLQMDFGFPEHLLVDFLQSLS

## CCOC(=O)N1c2ccc(C(F)(F)F)cc2[C@@H](N(Cc2cc(C(F)(F)F)cc(C(F)(F)F)c2)C(=O)OC)C[C@H]1CC [Torcetrapib]
  side effects: major side effects such as death
CETP-inhibitor
  results of HDL-increasing treatment: poor results
